One molecule from patent US7781407B2, “Calcium gluconolactate compositions and methods of making same” (priority 2002, dated 2010) can be followed below.

The data set in a line: Apparent and compacted bulk density (mass/volume, meshes 30, 80, 100). Type of data set: physicochemical. The text has this: 2.—Apparent and compacted bulk density; for the test calcium gluconolactonate, from formula III, was classified in 3 different types of mesh 30, 80, and 100 to determine its apparent density. The same procedure was used to determine compacted bulk density. The compound was classified in the same 30, 80, and 100 meshes, determining its density, in both cases, in grams per milliliter, as shown in table II below:
The average density corresponds to a 30 mesh, for the most common form of the product. A table is attached with different tests performed to determine the average apparent and compacted bulk density, resulting, in the first case, in a[n apparent] density of 0.690 and a compacted bulk density of 0.883, as shown in table III below: […]

Where [1] appears, read: 30 mesh, average of tests 1 to 31.

Consider `CC(O)C(=O)[O-].O=C([O-])[C@H](O)[C@@H](O)[C@H](O)[C@H](O)CO.[Ca+2]` [calcium gluconolactate], for which, where the note is “30 mesh, Mass/Volume”, the “Apparent Density (30 mesh)” value is 0.690 g/mL and the “Compacted Bulk Density (30 mesh)” value was determined as 0.883 g/mL. For the same molecule, under setting [1], the “Apparent density, average” value is 0.690 and the “Compacted Bulk density, average” value is 0.883. In addition, for the setting “80 mesh, Mass/Volume”, the “Apparent Density (80 mesh)” value came to 0.655 g/mL and the “Compacted Bulk Density (80 mesh)” value is 0.904 g/mL. For the same molecule, under “100 mesh, Mass/Volume”, the “Apparent Density (100 mesh)” value is 0.609 g/mL and the “Compacted Bulk Density (100 mesh)” value came out at 0.874 g/mL.
